# Reference: ChEMBL document CHEMBL5149976, “β-Carbolines as potential anticancer agents” (Eur J Med Chem, 2021)
# pEC50, pIC50: −log10 of the molar value.
# How the values were obtained:
# [1] = test system: Panel NCI-60 (60 carcinoma cell lines); assay: Cytotoxicity against human Panel NCI-60 (60 carcinoma cell lines) assessed as cell growth inhibition; format: functional, cell-based
# HeLa [2] = assay: Cytotoxicity against human HeLa cells assessed as cell growth inhibition; format: functional, cell-based
# MCF7 = assay: Cytotoxicity against human MCF7 cells assessed as cell growth inhibition; format: functional, cell-based
# [3] = Cytotoxicity against mouse C19 cells assessed as cell growth inhibition by MTT assay; format: functional, cell-based
# LoVo = assay: Cytotoxicity against human LoVo cells assessed as cell growth inhibition; format: functional, cell-based
# MT4 = assay: Cytotoxicity against human MT4 cells; format: functional; details: read-out: ED50 (the source's name)
# P388 [4] = assay: Cytotoxicity against mouse P388 cells; format: functional, cell-based; details: read-out: ED50 (the source's name)
# MOLT-4F = assay: Cytotoxicity against human MOLT-4F cells; format: functional; details: read-out: ED50 (the source's name)
# L1210 [5] = assay: Cytotoxicity against mouse L1210 cells; format: functional; details: read-out: ED50 (the source's name)
# DU-145 = assay: Cytotoxicity against human DU-145 cells assessed as cell growth inhibition by MTT assay; format: functional, cell-based; details: pooled result: one value given for 5 cell lines, strains, targets or settings
# A549 [6] = assay: Cytotoxicity against human A549 cells assessed as cell growth inhibition by MTT assay; format: functional, cell-based
# HT-29 [7] = assay: Cytotoxicity against human HT-29 cells assessed as cell growth inhibition and measured after 5 hrs by MTT assay; format: functional, cell-based; details: HT-29, 5 h
# A549 [8] = assay: Cytotoxicity against human A549 cells assessed as cell growth inhibition and measured after 5 hrs by MTT assay; format: functional, cell-based; details: A549, 5 h
# P388 [9] = assay: Cytotoxicity against mouse P388 cells assessed as cell growth inhibition and measured after 5 hrs by MTT assay; format: functional, cell-based; details: P388, 5 h
# [10] = Cytotoxicity against human KB-16 cells assessed as cell growth inhibition and measured after 5 hrs by MTT assay; format: functional, cell-based; details: KB16, 5 h
# NCI-H1299 = assay: Cytotoxicity against human NCI-H1299 cells assessed as cell growth inhibition; format: functional, cell-based
# L5178Y = assay: Cytotoxicity against mouse L5178Y cells assessed as cell growth inhibition; format: functional, cell-based
# L1210 [11] = assay: Cytotoxicity against mouse L1210 cells assessed as cell growth inhibition; format: functional, cell-based
# KB = assay: Cytotoxicity against human KB cells; format: functional, cell-based
# [12] = In vivo antitumor activity against mouse Lewis lung carcinoma cells xenografted in mouse model assessed as inhibition of cell growth relative to control; format: functional
# Calf thymus DNA [13] = assay: Binding affinity to calf thymus DNA assessed as binding constant by spectrophotometric analysis; format: nucleic-acid assay; details: Bos taurus
# Calf thymus DNA [14] = assay: Stabilization of calf thymus DNA assessed as change in melting temperature; format: nucleic-acid assay; details: Bos taurus
# HepG2 = assay: Cytotoxicity against human HepG2 cells assessed as cell growth inhibition and measured after 24 hrs by MTT assay; format: functional, cell-based; details: HepG2, 24 h
# HeLa [15] = assay: Cytotoxicity against human HeLa cells assessed as cell growth inhibition and measured after 24 hrs by MTT assay; format: functional, cell-based
# HT-29 [16] = assay: Anticancer activity against human HT-29 cells; format: functional
# M14 = assay: Anticancer activity against human M14 cells; format: functional
# UACC-62 = assay: Anticancer activity against human UACC-62 cells; format: functional
# MDA-MB-231 = assay: Anticancer activity against human MDA-MB-231 cells; format: functional
# OVCAR-3 [17] = assay: Anticancer activity against human OVCAR-3 cells; format: functional
# HOP-92 = assay: Anticancer activity against human HOP-92 cells; format: functional
# CCRF S-180 = assay: Antitumor activity against mouse CCRF S-180 cells allografted in ICR mouse assessed as tumor growth inhibition at 0.1 micromol/kg, iv administered for 7 days relative to control; format: functional; details: dose 0.1 µmol/kg, time 7 day
# [18] = target: DNA topoisomerase 1 (Homo sapiens) (UniProt P11387); assay: Inhibition of topoisomerase 1 (unknown origin) assessed as relaxation of pBR322 plasmid DNA and incubated for 10 mins
# Sequence of DNA topoisomerase 1 (Homo sapiens) (P11387 whole entry): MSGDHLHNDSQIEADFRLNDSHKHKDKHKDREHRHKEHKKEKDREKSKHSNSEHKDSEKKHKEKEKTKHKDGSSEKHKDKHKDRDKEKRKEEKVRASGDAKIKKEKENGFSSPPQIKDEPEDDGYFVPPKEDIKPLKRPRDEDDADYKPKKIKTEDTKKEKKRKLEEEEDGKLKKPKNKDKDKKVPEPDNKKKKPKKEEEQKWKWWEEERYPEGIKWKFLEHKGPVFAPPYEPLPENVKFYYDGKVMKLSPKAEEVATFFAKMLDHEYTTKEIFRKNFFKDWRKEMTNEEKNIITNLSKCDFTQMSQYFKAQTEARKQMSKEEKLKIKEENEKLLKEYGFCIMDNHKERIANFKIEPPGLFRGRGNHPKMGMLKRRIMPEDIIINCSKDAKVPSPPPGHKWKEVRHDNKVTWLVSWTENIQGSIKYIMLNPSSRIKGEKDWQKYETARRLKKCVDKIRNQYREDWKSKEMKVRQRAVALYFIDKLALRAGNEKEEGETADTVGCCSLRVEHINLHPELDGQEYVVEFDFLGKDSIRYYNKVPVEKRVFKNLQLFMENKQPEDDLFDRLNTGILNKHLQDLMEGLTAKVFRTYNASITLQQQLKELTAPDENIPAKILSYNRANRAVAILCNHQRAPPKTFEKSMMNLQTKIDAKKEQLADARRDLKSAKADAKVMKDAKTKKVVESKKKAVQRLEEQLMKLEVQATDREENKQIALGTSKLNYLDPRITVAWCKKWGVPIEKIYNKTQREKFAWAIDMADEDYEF
# Calu-1 = assay: Anti-ferroptotic activity against human Calu-1 cells assessed as cell growth inhibition; format: functional, cell-based
# [19] = Anti-ferroptotic activity against human BJeLR cells assessed as cell growth inhibition; format: functional, cell-based
# B16 = assay: Cytotoxicity against mouse B16 cells assessed as cell growth inhibition by MTT assay; format: functional, cell-based
# CCRF-CEM = assay: Cytotoxicity against human CCRF-CEM cells assessed as cell growth inhibition; format: functional, cell-based
# RPMI-8226 = assay: Cytotoxicity against human RPMI-8226 cells assessed as cell growth inhibition; format: functional, cell-based
# U-251 = assay: Cytotoxicity against human U-251 cells assessed as cell growth inhibition and measured after 48 hrs; format: functional, cell-based; details: U-251, 48 h
# OVCAR-3 [20] = assay: Cytotoxicity against human OVCAR-3 cells assessed as cell growth inhibition and measured after 48 hrs; format: functional, cell-based; details: OVCAR-3, 48 h
# PC-3 = assay: Cytotoxicity against human PC-3 cells assessed as cell growth inhibition and measured after 48 hrs; format: functional, cell-based; details: PC-3, 48 h
# HT-29 [21] = assay: Cytotoxicity against human HT-29 cells assessed as inhibition of cell growth measured after 48 hrs by MTT assay; format: functional, cell-based; details: HT-29, 48 h
# HGC-27 = assay: Cytotoxicity against human HGC-27 cells assessed as inhibition of cell growth measured after 48 hrs by MTT assay; format: functional, cell-based; details: HGC-27, 48 h
# A-375 = assay: Cytotoxicity against human A-375 cells assessed as cell growth inhibition; format: functional, cell-based
smiles,measurement,setting,value
COc1ccc(-c2nc(-c3nc4ccc(F)cc4[nH]3)cc3c2[nH]c2ccccc23)cc1,pIC50,[1],5.72
COc1ccccc1-c1c(-c2ccccc2)ncc2[nH]c3ccccc3c12,pIC50,HeLa [2],4.45
same,pIC50,MCF7,4.45
c1ccc2c(-c3nccc4c3[nH]c3ccccc34)c[nH]c2c1,pIC50,[3],4.81
CCCCc1nc(C(=O)O)cc2c1[nH]c1ccccc12,pIC50,LoVo,4.96
NC1CSCON2CCC3c4ccccc4NC3C12 (stereo not given),pEC50,MT4,8.30
same,pEC50,P388 [4],8.30
same,pEC50,MOLT-4F,8.30
same,pEC50,L1210 [5],8.30
c1ccc(-c2nc(-c3nc4ccccc4[nH]3)cc3c2[nH]c2ccccc23)cc1,pIC50,[1],6.44
O=C(/C=C/c1cc2c([nH]c3ccccc32)c(-c2ccc(F)cc2)n1)c1ccco1,pIC50,DU-145,5.73
same,pIC50,A549 [6],5.73
CCN(CC)c1ccc(C2NCCc3c2[nH]c2ccccc32)cc1 (stereo not given),IC50,HT-29 [7],0.07 µg/mL
same,IC50,A549 [8],0.07 µg/mL
same,IC50,P388 [9],0.07 µg/mL
same,IC50,[10],0.07 µg/mL
c1ccc2c(c1)[nH]c1c(CNCCOCCNCc3nccc4c3[nH]c3ccccc34)nccc12,pIC50,NCI-H1299,5.80
COc1ccc2c(c1)C1CCN3OCSCC(N)C3C1N2 (stereo not given),pEC50,MT4,> 8.30
same,pEC50,P388 [4],> 8.30
same,pEC50,MOLT-4F,> 8.30
same,pEC50,L1210 [5],> 8.30
CNC(CSC)c1nccc2c1[nH]c1ccc(O)c(Br)c12 (stereo not given),pIC50,L5178Y,5.74
same,pIC50,"L1210 [11]; Mus musculus, L1210",5.74
same,pIC50,L1210 [11]; l1210,5.62
Oc1ccc2[nH]c3c(C4=C[C@@]5(O)CC/C=C\CCCCN6CC[C@@H]4[C@]4(C[C@@H]7/C=C\CCCCN7[C@H]45)C6)nccc3c2c1 [MANZAMINE Y],pIC50,KB,5.60
same,pIC50,"L1210 [11]; Mus musculus, L1210",5.82
CCCCn1c2ccccc2c2ccnc(C(=O)OCCCCCCOC(=O)c3nccc4c5ccccc5n(CCCC)c34)c21,inhibition (INH),[12],64.2%
NCCCCNC(=O)c1cc2c(cn1)[nH]c1ccccc12,K,Calf thymus DNA [13],4.5 10^4/M
same,ΔTm,Calf thymus DNA [14],5.7 °C
O=Cc1cc2c([nH]c3ccccc32)c(-c2ccccc2)n1,pIC50,[1],6.44
COC(=O)c1cc2c([nH]c3ccccc32)c(-c2ccc(OCc3cn(-c4cccc(Cl)c4Cl)nn3)cc2)n1,pIC50,HepG2,4.49
same,pIC50,HeLa [15],4.34
Cn1c2cnccc2c2c(Br)c(O)ccc21,pIC50,L5178Y,6.38
same,pIC50,"L1210 [11]; Mus musculus, L1210",6.38
same,pIC50,L1210 [11]; l1210,6.44
Fc1ccc(-c2nc(-c3nc4ccc(Cl)cc4[nH]3)cc3c2[nH]c2ccccc23)cc1,pIC50,[1],5.72
COC(=O)[C@@H]1Cc2c([nH]c3ccccc23)[C@@H](c2ccccc2)N1,pIC50,[1],6.44
CCN(CC)CCCNc1nccc2c1[nH]c1ccccc12,GI50,HT-29 [16],2.7 µM
same,GI50,M14,2 µM
same,GI50,UACC-62,2.3 µM
same,GI50,MDA-MB-231,5.2 µM
same,GI50,OVCAR-3 [17],1.6 µM
same,GI50,HOP-92,0.38 µM
COc1ccc2nc(-c3cc4c([nH]c5ccccc54)c(-c4ccc(F)c(F)c4)n3)[nH]c2c1,pIC50,[1],5.72
Cc1ccc(C[C@H](N)[C@@H]2NCCc3c2[nH]c2ccc(Br)cc32)cc1,pIC50,L5178Y,5.51
same,pIC50,"L1210 [11]; Mus musculus, L1210",5.51
same,pIC50,L1210 [11]; l1210,5.47
CC[C@H](C)[C@H](NC(=O)[C@H](Cc1c[nH]c2ccccc12)NC(=O)[C@H](Cc1c[nH]c2ccccc12)NC(=O)c1cc2c([nH]c3ccccc32)c(-c2ccc(O)c(OC)c2)n1)C(=O)OCc1ccccc1,TGI,CCRF S-180,63.4%
Cc1nccc2c1[nH]c1ccccc12,ED50,[18],23.8 µg/mL
COc1cccc2c1C(=O)c1c(O)c3c(c(O)c1C2=O)C[C@@](O)(C(=O)CO)C[C@@H]3O[C@H]1C[C@H](N)[C@H](O)[C@H](C)O1.Cl [DOXORUBICIN HYDROCHLORIDE],TGI,CCRF S-180,61.1%
COC(=O)c1ccc([C@H]2c3[nH]c4ccccc4c3C[C@H](C(=O)OC)N2C(=O)CCl)cc1,pIC50,Calu-1,7.70
same,pIC50,[19],5.70
O=C(/C=C/C1Cc2c([nH]c3ccccc23)C(c2ccc(F)cc2)N1)c1ccc(F)cc1 (stereo not given),pIC50,B16,5.13
same,pIC50,A549 [6],5.25
COc1ccc(-c2nc(-c3nc4ccc(OC)cc4[nH]3)cc3c2[nH]c2ccccc23)cc1,pIC50,CCRF-CEM,6.06
same,pIC50,[1],5.72
same,pIC50,RPMI-8226,6.44
COc1ccc(-c2nc(C3=N/C(=C\c4ccccc4)C(=O)O3)cc3c2[nH]c2ccccc23)cc1,pIC50,U-251,6.32
same,pIC50,OVCAR-3 [20],5.97
same,pIC50,PC-3,5.82
COc1cc(-c2nc(Cn3cc(CN4C(=O)c5ccc(C)cc5C4=O)nn3)cc3c2[nH]c2ccccc23)cc(OC)c1OC,pIC50,HT-29 [21],5.44
same,pIC50,HGC-27,> 5.00
c1ccc2c(c1)[nH]c1c(CNCCOCCOCCNCc3nccc4c3[nH]c3ccccc34)nccc12,pIC50,A-375,5.70
COc1cc(-c2nc(C(=O)N[C@@H](Cc3c[nH]c4ccccc34)C(=O)N[C@@H](Cc3c[nH]c4ccccc34)C(=O)N[C@@H](CO)C(=O)OCc3ccccc3)cc3c2[nH]c2ccccc23)ccc1O,TGI,CCRF S-180,62.9%
c1ccc2c(c1)[nH]c1cnccc12,ED50,[18],34.4 µg/mL
"O[C@]12C=C(C3=NCCc4c3[nH]c3ccccc43)[C@@H]3CCN(CCCC/C=C\CC1)C[C@@]31C[C@@H]3/C=C\CCCCN3[C@H]12 [3,4-DIHYDROMANZAMINE A]",pIC50,KB,6.21
same,pIC50,"L1210 [11]; Mus musculus, L1210",5.32
COc1ccc(-c2c(-c3ccccc3)ncc3[nH]c4ccccc4c23)cc1,pIC50,HeLa [2],4.47
same,pIC50,MCF7,4.68
CCn1c2ccccc2c2cc(C3NCCc4c3[nH]c3ccccc43)ccc21 (stereo not given),IC50,HT-29 [7],< 0.001 µg/mL
same,IC50,A549 [8],< 0.001 µg/mL
same,IC50,P388 [9],< 0.001 µg/mL
same,IC50,[10],< 0.001 µg/mL
CC(=O)N1N=C(c2ccco2)CC1c1cc2c([nH]c3ccccc32)c(-c2ccc(F)cc2)n1 (stereo not given),pIC50,DU-145,5.71
same,pIC50,A549 [6],5.71
